Data: ChEMBL document CHEMBL1201862, “PubChem BioAssay data set” (2004)
Each block holds one molecule with its values, some of them ahead of it. The source made the active and inactive calls.

Key:
[1] = biological target: T1, 1-phosphatidylinositol 4,5-bisphosphate phosphodiesterase gamma-1 (Homo sapiens, UniProt P19174); test: Counterscreen for inhibitors of phospholipase C isozymes (PLC-B3): Fluorescence-based biochemical high throughput dose response assay to identify inhibitors of phospholipase C isozymes (PLC-gamma1).
T1 sequence (P19174 whole entry): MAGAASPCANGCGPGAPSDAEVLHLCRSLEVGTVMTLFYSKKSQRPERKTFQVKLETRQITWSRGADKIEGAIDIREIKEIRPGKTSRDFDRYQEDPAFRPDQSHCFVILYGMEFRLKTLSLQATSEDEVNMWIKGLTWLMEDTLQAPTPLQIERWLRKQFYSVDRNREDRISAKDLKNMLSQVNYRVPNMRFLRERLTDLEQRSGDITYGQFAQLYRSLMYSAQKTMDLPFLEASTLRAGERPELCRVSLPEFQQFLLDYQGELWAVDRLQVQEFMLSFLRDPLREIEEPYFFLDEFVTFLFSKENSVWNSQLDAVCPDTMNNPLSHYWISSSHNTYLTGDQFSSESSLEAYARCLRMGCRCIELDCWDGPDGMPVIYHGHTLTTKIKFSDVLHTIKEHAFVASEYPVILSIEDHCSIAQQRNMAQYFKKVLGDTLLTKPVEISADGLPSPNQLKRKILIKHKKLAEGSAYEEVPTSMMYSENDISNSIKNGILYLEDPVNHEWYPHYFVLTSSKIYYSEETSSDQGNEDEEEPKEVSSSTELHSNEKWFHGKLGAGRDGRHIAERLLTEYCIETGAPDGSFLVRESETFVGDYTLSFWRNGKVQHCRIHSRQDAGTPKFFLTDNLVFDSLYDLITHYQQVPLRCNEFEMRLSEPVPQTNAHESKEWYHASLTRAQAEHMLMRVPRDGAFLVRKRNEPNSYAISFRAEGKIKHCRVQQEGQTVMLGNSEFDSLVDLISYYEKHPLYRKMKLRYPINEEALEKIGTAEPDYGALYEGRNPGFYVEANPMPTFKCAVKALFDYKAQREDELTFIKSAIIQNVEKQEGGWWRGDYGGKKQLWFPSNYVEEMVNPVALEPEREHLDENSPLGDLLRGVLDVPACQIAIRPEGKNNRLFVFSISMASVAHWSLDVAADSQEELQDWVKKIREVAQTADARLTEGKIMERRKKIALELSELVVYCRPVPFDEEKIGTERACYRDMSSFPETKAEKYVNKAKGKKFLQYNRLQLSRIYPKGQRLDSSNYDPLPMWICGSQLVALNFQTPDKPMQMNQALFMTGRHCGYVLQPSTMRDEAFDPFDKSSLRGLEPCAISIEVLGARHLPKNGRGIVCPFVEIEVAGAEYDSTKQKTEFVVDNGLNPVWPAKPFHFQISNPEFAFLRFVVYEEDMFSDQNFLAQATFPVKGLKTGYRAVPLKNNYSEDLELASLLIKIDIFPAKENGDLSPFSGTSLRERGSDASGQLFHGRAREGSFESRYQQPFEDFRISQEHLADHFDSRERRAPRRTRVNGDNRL

[2] = biological target: Phosphorylase b kinase gamma catalytic chain, liver/testis isoform (Homo sapiens, UniProt P15735); type: functional;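 further: PHKG2 measured as one member of a kinome-wide kinase panel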
[3] = biological target: ALK tyrosine kinase receptor (Homo sapiens, UniProt Q9UM73); type: functional;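 further: ALK tested as one member of a kinase panel screen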
[4] = biological target: Calcium/calmodulin-dependent protein kinase type II subunit gamma (Homo sapiens, UniProt Q13555); type: functional
Aurora kinase A = Aurora kinase A (Homo sapiens, UniProt O14965); type: functional;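 further: value from the Navigating the Kinome kinase panel profiling, panel entry STK6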
[5] = biological target: Serine/threonine-protein kinase PAK 1 (Homo sapiens, UniProt Q13153); type: functional
[6] = biological target: Proto-oncogene tyrosine-protein kinase ROS (Homo sapiens, UniProt P08922); type: functional;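 further: ROS1 tested as one member of a kinome-wide kinase panel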
[7] = biological target: Testis-specific serine/threonine-protein kinase 1 (Homo sapiens, UniProt Q9BXA7); type: functional
[8] = biological target: Non-receptor tyrosine-protein kinase TYK2 (Homo sapiens, UniProt P29597); type: functional
[9] = biological target: Cyclin-dependent kinase 5 (Homo sapiens, UniProt Q00535); type: functional;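 further: CDK5 measured as one member of a kinase profiling panel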
[10] = biological target: Interleukin-1 receptor-associated kinase 1 (Homo sapiens, UniProt P51617); type: functional;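 further: IRAK1 tested as one member of a kinome panel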
[11] = biological target: Leucine-rich repeat serine/threonine-protein kinase 2 (Homo sapiens, UniProt Q5S007); type: functional;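 further: value from a broad kinome-wide panel profiling study in which LRRK2 was one of the kinases tested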
Aurora kinase B = Aurora kinase B (Homo sapiens, UniProt Q96GD4); type: functional
[12] = biological target: RAC-alpha serine/threonine-protein kinase (Homo sapiens, UniProt P31749); type: functional;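 further: AKT1 affinity measured as one member of a kinome-wide kinase profiling panel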
[13] = biological target: Calcium/calmodulin-dependent protein kinase type 1 (Homo sapiens, UniProt Q14012); type: functional
[14] = biological target: Serine/threonine-protein kinase pim-2 (Homo sapiens, UniProt Q9P1W9); type: functional;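 further: value comes from a broad kinase panel profiling study in which PIM2 was one of the panel members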
[15] = biological target: Cyclin-dependent kinase 8 (Homo sapiens, UniProt P49336); test: Navigating the Kinome. Panel member name: CDK8; type: functional
[16] = biological target: Vascular endothelial growth factor receptor 1 (Homo sapiens, UniProt P17948); type: functional;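 further: measured within a kinome-wide profiling panel, FLT1 as the panel member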
[17] = biological target: STE20-like serine/threonine-protein kinase (Homo sapiens, UniProt Q9H2G2); type: functional
[18] = biological target: Serine/threonine-protein kinase PLK1 (Homo sapiens, UniProt P53350); type: functional;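 further: PLK1 measured as one member of a kinome-wide profiling panel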
[19] = biological target: Cyclin-dependent kinase 9 (Homo sapiens, UniProt P50750); type: functional;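 further: value from the CDK9 entry of a kinome-spanning kinase panel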
[20] = biological target: Receptor tyrosine-protein kinase erbB-4 (Homo sapiens, UniProt Q15303); type: functional;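 further: ERBB4 member of a kinome-wide kinase profiling panel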
[21] = biological target: cAMP-dependent protein kinase catalytic subunit alpha (Homo sapiens, UniProt P17612); type: functional
[22] = biological target: Dual specificity protein kinase CLK4 (Homo sapiens, UniProt Q9HAZ1); type: functional
[23] = biological target: Lymphokine-activated killer T-cell-originated protein kinase (Homo sapiens, UniProt Q96KB5); type: functional;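 further: value comes from a kinase panel screen in which TOPK was one of the panel members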
[24] = biological target: Mitogen-activated protein kinase kinase kinase kinase 4 (Homo sapiens, UniProt O95819); type: functional
[25] = biological target: Serine/threonine-protein kinase MRCK alpha (Homo sapiens, UniProt Q5VT25); type: functional
[26] = biological target: Leukocyte tyrosine kinase receptor (Homo sapiens, UniProt P29376); test: Navigating the Kinome. Panel member name: LTK; type: functional

Chain of Interleukin-1 receptor-associated kinase 1 (P51617 whole entry): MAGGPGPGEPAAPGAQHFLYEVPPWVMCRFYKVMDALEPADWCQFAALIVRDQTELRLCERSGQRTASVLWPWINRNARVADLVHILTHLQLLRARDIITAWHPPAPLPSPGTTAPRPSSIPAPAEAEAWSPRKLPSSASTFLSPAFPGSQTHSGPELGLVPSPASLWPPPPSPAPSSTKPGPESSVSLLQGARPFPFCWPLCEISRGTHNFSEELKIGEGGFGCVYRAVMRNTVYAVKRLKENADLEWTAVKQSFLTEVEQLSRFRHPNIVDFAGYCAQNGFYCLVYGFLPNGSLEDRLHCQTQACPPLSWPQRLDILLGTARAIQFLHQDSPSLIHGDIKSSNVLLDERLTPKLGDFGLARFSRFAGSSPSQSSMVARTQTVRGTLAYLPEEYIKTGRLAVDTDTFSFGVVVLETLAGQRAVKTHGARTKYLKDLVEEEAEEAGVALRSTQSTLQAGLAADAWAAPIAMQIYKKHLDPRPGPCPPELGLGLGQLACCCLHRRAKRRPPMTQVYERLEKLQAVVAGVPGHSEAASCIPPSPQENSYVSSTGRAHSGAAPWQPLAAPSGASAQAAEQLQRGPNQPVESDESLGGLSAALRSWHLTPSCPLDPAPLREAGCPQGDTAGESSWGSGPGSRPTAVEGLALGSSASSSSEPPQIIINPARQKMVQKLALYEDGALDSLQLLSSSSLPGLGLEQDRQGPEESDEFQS
Chain of Vascular endothelial growth factor receptor 1 (P17948 whole entry): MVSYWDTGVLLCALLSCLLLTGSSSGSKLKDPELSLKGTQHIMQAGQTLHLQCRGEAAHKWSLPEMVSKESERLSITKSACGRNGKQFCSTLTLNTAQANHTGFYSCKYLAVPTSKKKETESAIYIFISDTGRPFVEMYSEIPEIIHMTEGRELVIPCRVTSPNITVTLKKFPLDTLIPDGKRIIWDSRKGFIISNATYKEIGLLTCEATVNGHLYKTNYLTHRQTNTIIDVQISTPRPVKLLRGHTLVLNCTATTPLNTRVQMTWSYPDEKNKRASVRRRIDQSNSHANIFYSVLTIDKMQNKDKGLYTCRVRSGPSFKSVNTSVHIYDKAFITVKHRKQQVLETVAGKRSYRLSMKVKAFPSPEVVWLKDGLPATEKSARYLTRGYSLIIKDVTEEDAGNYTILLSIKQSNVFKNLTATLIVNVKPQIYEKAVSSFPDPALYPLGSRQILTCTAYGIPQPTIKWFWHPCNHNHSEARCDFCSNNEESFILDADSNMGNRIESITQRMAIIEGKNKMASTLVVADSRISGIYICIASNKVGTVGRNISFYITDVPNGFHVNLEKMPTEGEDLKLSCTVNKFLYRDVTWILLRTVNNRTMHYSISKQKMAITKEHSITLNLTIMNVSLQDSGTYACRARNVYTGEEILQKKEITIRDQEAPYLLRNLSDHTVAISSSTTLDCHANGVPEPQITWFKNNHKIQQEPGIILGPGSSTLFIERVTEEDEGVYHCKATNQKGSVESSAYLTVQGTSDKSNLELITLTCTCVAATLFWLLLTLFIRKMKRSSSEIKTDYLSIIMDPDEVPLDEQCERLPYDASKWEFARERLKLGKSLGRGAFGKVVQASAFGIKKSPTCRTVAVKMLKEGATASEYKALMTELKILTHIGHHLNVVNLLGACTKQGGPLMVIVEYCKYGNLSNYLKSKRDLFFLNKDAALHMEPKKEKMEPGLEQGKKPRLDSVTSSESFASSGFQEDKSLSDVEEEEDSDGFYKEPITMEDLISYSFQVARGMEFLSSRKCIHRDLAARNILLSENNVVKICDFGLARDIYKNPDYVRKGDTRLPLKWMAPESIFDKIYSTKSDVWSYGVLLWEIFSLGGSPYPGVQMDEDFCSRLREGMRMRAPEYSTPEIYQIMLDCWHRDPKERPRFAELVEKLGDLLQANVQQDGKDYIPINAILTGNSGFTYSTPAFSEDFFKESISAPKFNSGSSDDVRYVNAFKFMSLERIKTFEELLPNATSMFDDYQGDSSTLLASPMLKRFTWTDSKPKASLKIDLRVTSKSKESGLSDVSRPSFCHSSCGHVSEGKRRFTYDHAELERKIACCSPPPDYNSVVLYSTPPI
Chain of Serine/threonine-protein kinase MRCK alpha (Q5VT25 whole entry): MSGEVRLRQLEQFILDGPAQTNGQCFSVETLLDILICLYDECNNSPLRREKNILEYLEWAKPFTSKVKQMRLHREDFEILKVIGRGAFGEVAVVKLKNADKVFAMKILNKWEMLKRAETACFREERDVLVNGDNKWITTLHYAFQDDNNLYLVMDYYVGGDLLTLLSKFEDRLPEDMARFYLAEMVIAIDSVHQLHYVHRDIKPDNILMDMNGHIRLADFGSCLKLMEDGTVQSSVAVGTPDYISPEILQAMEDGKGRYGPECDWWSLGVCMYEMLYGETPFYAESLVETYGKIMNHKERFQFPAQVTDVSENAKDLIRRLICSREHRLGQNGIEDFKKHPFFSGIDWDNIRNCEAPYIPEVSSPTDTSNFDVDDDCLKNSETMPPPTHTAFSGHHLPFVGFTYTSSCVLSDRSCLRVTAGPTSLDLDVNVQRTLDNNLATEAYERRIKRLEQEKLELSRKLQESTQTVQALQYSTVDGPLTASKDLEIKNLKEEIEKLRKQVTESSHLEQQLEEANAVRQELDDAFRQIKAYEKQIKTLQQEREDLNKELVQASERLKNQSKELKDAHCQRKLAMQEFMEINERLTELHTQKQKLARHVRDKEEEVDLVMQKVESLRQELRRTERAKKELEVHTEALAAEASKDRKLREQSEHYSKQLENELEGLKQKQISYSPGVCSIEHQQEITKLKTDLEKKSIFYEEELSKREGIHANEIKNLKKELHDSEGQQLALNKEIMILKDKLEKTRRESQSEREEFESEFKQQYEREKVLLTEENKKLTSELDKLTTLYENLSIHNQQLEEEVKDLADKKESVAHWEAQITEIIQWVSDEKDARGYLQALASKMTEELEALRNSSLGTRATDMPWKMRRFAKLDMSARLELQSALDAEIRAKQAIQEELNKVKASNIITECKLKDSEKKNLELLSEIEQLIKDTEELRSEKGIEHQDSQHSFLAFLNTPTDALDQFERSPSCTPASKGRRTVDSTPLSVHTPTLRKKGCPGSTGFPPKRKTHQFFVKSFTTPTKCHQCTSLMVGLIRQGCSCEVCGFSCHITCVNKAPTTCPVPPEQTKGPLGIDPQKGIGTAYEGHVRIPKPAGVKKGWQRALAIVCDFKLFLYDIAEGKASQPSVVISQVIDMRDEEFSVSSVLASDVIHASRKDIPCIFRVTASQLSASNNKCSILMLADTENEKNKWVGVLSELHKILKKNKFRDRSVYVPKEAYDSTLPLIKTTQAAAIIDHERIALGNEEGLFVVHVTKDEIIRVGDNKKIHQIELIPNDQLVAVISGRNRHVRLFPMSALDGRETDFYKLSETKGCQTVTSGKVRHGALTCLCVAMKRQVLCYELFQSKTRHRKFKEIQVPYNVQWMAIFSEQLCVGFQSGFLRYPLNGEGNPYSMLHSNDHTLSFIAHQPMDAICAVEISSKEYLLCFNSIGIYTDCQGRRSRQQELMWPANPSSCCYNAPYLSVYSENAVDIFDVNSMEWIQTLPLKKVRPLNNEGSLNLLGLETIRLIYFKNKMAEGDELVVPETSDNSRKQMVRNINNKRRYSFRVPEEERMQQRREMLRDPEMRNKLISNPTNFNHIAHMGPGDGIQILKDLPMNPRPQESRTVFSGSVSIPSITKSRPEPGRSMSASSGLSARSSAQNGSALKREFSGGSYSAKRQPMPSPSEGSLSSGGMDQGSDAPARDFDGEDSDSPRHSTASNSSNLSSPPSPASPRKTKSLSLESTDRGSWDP
Chain of Cyclin-dependent kinase 9 (P50750 whole entry): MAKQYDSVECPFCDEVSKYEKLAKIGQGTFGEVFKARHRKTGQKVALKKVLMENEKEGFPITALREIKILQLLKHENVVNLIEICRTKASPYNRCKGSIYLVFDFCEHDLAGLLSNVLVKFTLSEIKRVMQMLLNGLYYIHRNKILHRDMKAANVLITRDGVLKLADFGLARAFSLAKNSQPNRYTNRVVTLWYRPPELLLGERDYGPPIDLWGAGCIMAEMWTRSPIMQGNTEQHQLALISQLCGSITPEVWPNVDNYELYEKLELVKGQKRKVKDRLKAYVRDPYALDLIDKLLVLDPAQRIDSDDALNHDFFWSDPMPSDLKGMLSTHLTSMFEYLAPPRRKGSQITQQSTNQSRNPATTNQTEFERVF
Chain of Testis-specific serine/threonine-protein kinase 1 (Q9BXA7 whole entry): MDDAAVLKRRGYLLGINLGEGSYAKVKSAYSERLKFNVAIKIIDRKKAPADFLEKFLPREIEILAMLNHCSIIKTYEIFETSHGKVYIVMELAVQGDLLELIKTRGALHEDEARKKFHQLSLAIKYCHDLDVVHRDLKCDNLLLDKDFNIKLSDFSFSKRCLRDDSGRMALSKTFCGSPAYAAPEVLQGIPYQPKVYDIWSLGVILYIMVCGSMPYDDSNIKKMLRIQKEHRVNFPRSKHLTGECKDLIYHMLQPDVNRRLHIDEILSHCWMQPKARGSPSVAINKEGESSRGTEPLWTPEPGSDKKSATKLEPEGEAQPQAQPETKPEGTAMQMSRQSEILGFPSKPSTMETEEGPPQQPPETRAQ
Chain of Dual specificity protein kinase CLK4 (Q9HAZ1 whole entry): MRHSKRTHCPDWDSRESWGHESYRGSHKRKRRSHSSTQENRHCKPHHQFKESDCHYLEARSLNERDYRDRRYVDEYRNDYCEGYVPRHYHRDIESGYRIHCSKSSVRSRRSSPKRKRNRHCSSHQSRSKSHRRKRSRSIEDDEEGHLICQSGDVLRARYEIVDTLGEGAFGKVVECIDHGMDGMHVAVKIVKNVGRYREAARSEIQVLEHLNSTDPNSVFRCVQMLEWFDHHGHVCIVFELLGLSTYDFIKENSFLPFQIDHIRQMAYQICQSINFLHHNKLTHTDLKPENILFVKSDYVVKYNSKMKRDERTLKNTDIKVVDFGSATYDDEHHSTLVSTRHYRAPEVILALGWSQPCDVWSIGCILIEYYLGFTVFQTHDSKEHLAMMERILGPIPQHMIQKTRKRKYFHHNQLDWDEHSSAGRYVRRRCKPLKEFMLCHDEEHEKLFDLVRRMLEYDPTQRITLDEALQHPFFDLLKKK

Compound: Cc1ccc(/C=C2/C(=O)c3ccc(C(=O)O)cc3C2=O)o1
IC50 [1]: > 122000 nM (inactive)

Ki [2]: > 5010 nM (inactive)
Ki [3]: > 3980 nM (inactive)
Ki [4]: 1580 nM (active)
Ki (Aurora kinase A): > 1580 nM (inactive)
Ki [5]: 1580 nM (active)
Ki [6]: 200 nM (active)
Ki [7]: 251 nM (active)
Ki [8]: 1580 nM (active)
Ki [9]: > 3980 nM (inactive)
Ki [10]: 2510 nM (active)
Ki [11]: 2510 nM (active)
Ki (Aurora kinase B): 1000 nM (active)
Ki [12]: 2000 nM (active)
Ki [13]: > 1000 nM (inactive)
Ki [14]: > 2000 nM (inactive)
Ki [15]: 3160 nM (active)
Ki [16]: > 398 nM (inactive)
Ki [17]: 501 nM (active)
Ki [18]: 501 nM (active)
Ki [19]: > 3980 nM (inactive)
Ki [20]: > 3980 nM (inactive)
Ki [21]: 398 nM (active)
Ki [22]: 158 nM (active)
Ki [24]: > 200 nM (inactive)
Ki [25]: 39.8 nM (active)
Ki [26]: > 2510 nM (inactive)
Compound: Clc1cc(NC2CCCCC2)nc(-c2c[nH]c3ncccc23)n1
Ki [23]: 6310 nM (active)
